Counter-ions that a name gives are not always drawn.
Tests used:
[1] = system: osteopenic ovx rats; test: Ovariectomized rat Study 1: bone mineral density by DXA; type: in vivo; conditions: Study 1, ovx rats, 100 mmol/kg body weight daily p.o., eight weeks of dosing
Excerpt: (§1) Seven month old virgin Sprague Dawley female rats were subjected to bilateral ovariectomy or sham surgery and the animals then held for a period of three months to allow the development of osteopenia. At that time a single sham group (n=10) and three groups of ovariectomized (ovx) animals (n=10-14) were assigned. The ovx groups were selected such that there was no significant difference in bone mineral density (“BMD”) of the lumbar spine, proximal tibia or distal femur between groups. Groups consisted of sham and ovx controls treated with dose vehicle (20% aqueous encapsin) and ovx groups treated with either N-[(2R-Hydroxy-3-[(3-chloro-2-cyano)phenoxy-propyl]-1,1-dimethyl-2-(2-naphthyl)ethyl amine hydrochloride (“calcilytic administered”) ([…] body weight daily p.o.) or rat PTH 1-34 (5 ug/kg body weight daily s.c.).
(§2) During the study blood samples were drawn for determination of circulating PTH and osteocalcin. BMD was determined by DXA (QDR4500 Hologic, Waltham, Mass.) prior to treatment and at weeks 4 and 8. At term tibiae were removed for histological analysis. All animals received tetracycline 10 and 3 days prior to the start of dosing and calcein (10 mg/kg) 10 and 3 days prior to sacrifice.

[2] = system: plasma PTH; test: Ovariectomized rat Study 1: circulating PTH levels (RIA); type: in vivo
Excerpt: as §1, §2
Timed plasma samples were collected relative to administration of compound or PTH. PTH 1-34 was measured by RIA (Nichols Institute Diagnostics, San Juan Capistrano, Calif.). The concentrations of compound in the plasma were quantified by LC/MS/MS (limit of detection 10 ng/ml).

[3] = system: osteopenic ovx rats; test: Ovariectomized rat Study 1: dynamic histomorphometry of proximal tibia; type: in vivo
Excerpt: as §1, §2
Bone samples were dehydrated through increasing concentrations of ethanol, defatted in acetone and embedded in methyl methacrylate (Polysciences, Inc., Warrington, Pa.). Longitudinal undecalcified sections (5 μm) sections of the proximal tibial were cut on a Leica microtome (SM2500S); the tissue blocks had been prestained with Villanueva stain. Histomorphometric analysis was carried out using an Osteomeasure system (OsteoMetrics Incorpotated), without knowledge of group allocation. Measurements within the tibial metaphysis were restricted to a mean tissue area of approximately 8 mm^2 beginning 1 mm below the growth plate. Primary measurements included area of bone and marrow (mm^2), bone area (mm^2), perimeter of bone (mm), single and double-labelled perimeter (sL.Pm, dL.Pm, m), osteoid perimeter (O.Pm, m) and eroded perimeter (Er.P, m). Derived indices included trabecular bone volume (% Tb.Ar), trabecular number (Th.N, mm^−1), trabecular thickness (Th.Th, μm), trabecular separation (Th.Sp, μm), bone formation rate, surface referent (BFR/Tb.Pm, μm^3/μm^2/year), BFR/Tb.Ar (bone area referent, %/year), BFR/B.Ar (tissue referent, %/year) and mineral apposition rate (MAR, μm/day), and percent labelled perimeter (% Lp). Statistical analysis was assessed by a two sided t-test.

[4] = system: primary human osteoblasts; test: Osteoblast cAMP production, primary human osteoblasts; type: cell-based; conditions: compound 0.1, 1 and 10 uM
Protocol: (§3) cAMP accumulation was measured in both human TF274 osteoblastic cells (derived by immortalization of human bone marrow stromal cells) see James, supra, and primary human osteoblasts derived from explants of trabecular bone as described in Beresford, Biochim. Biophys. Acta, Vol. 801, pp. 58-65 ([…]). cAMP levels in cell samples were measured using a non-radioactive protocol (Amersham kit). Alkaline phosphatase activity was determined using the standard colorimetric method as described previously in Gowen, Arth. Rheum., Vol. 31, pp. 1500-1507 (1988). N-[(2R-Hydroxy-3-[(3-chloro-2-cyano)phenoxy-propyl]-1,1-dimethyl-2-(2-naphthyl)ethyl amine hydrochloride was tested at 0.1, 1 and 10 uM. PTH 40 ng/ml was used as a positive control.

[5] = system: TF274 cells; test: Osteoblast alkaline phosphatase activity; type: cell-based, human; conditions: compound 0.1, 1 and 10 uM
Protocol: as §3

[6] = system: osteoblasts; test: Toxicity in vitro in osteoblast assays; type: cell-based, human; conditions: 10 uM concentration
Protocol: as §3

[7] = system: human osteoclasts; test: Human osteoclast-mediated bone resorption assay; type: cell-based; conditions: concentrations up to 3 uM, 24 hours
Protocol: The isolation of disaggregated human osteoclasts from fresh osteoclastoma tissue and the in vitro human osteoclast resorption assay were performed according to James, J. Bone Min. Res., Vol. 11, pp. 1453-1460. Briefly, human osteoclasts were seeded onto bovine cortical bone particles with compound or vehicle for 24 hours at 37° C. The culture media were then removed and the levels of the carboxy-terminal peptide of the α1 chain of human type I collagen were quantified as a biochemical readout of resorption, using a competitive binding enzyme linked immunosorbant assay (ELISA) (19) (Osteometer A/S, Rodovre, Denmark). The results are expressed as percent inhibition of resorption compared to supernatants derived from osteoclasts cultured in vehicle without inhibitor. IC50 values are determined from the resultant dose response curves.

[8] = system: fetal rat long bone; test: Fetal rat long bone resorption assay; type: cell-based; conditions: 45Ca release, PTH-stimulated, 48 hours; read-out: IC50, inhibition of resorption in fetal rat long bone assay
Protocol: The assay was performed essentially as in Votta, Bone, Vol. 15, pp. 533-538, (1994). Timed-pregnant Sprague-Dawley rats (Taconic Farms, Germantown, N.Y.) were injected subcutaneously with 200 microcuries of ^45CaCl2 on day 18 of gestation, housed overnight, then anesthetized with Innovar-Vet (Pittman-Moore, Mundelein, Ill.) and sacrificed by cervical dislocation. The fetuses were removed aseptically and the radii and ulnae were dissected free of surrounding soft tissue and cartilagenous ends. The bone rudiments (n=4) were subsequently cultured for 18-24 hours in BGJb medium (Sigma, St. Louis, Mo.) containing 1 mg/ml BSA, then transferred to fresh medium and cultured for an additional 48 hours in the absence or presence of PTH (human parathyroid hormone, Bachem, Torrence, Calif.) and the desired inhibitor. ^45 Ca released into the medium and the residual ^45Ca in the bones (following solubilization in 5% TCA for 1 hour at room temperature) were quantitated by liquid scintillation spectrometry. Data are expressed as the percent ^45Ca released from treated bones as compared with corresponding control bones. Statistical differences were assessed by a one way analysis of variance (ANOVA). IC-50 values were based on data from two independent experiments.

[9] = Study 1, proximal tibia, vs ovx control, calcilytic 100 mmol/kg p.o. or PTH 5 ug/kg s.c. daily

CC(C)(Cc1ccc2ccccc2c1)NC[C@@H](O)COc1cccc(Cl)c1C#N [N-[(2R-Hydroxy-3-[(3-chloro-2-cyano)phenoxy-propyl]-1,1-dimethyl-2-(2-naphthyl)ethylamine hydrochloride]
bone mass (BMD; lumbar spine, distal femur, proximal tibia) [1]: unaffected
plasma PTH levels at four hours after administration ([2]; Study 1, after calcilytic 100 mmol/kg p.o.): remained high
plasma PTH levels ([2]; Study 1, end of experiment, after calcilytic 100 mmol/kg p.o.): > 100 pg/mL
plasma PTH levels after 24 hours ([2]; Study 1, immediately prior to next dose of calcilytic): back to baseline
bone formation and resorption, net bone gain or loss ([3]; Study 1, overall outcome): dramatic increase in both bone formation and resorption, with no net bone gain or loss
bone turnover, BFR/B.Ar. ([3]; Study 1, proximal tibia, compared with PTH and ovx control groups): dramatic increase
bone resorption, % eroded perimeter ([3]; Study 1, proximal tibia, vs PTH or ovx control groups): significantly higher
bone formation: % labeled perimeter (% L.Pm.) [3, 9]: elevated above the ovx control level
bone formation: % osteoid perimeter (% Os.Pm) [3, 9]: elevated above the ovx control level
PTH-induced cAMP levels ([4]; PTH 40 ng/ml): no effect
cAMP levels (basal) ([4]; PTH 40 ng/ml positive control): no effect
alkaline phosphatase activity [5]: did not result in any change
PTH-induced alkaline phosphatase ([5]; PTH 40 ng/ml): nor was PTH-induced alkaline phosphatase affected
toxicity in vitro [6]: some toxicity
effect on human osteoclast mediated bone resorption [7]: no effect
IC50 [8]: 11.3 µM
